{"source": "patent US5688773A", "about": "“Method of selectively destroying neoplastic cells” (priority 1994, dated 1997)", "key": {"C6 cells": {"test_system": "C6 cells", "assay": "Trypsinization and replating assay", "format": "cell-based, rat", "settings": "for Cell number: replated, counted nine days later", "protocol": "(§1) Trypsinization and replating assay: To determine the temporal kinetics of CPA-mediated cytotoxicity, 2×10^6 cells were plated onto each 10 cm dish. Twenty-four hours later, 0.5 mM CPA was added and cells were incubated for the times indicated in each figure. Cells were then trypsinized and replated at a density of 2×10^5 cells/10 cm dish. Nine days later, cell numbers were evaluated by Coulter counting."}, "C6-P450 cells": {"test_system": "C6-P450 cells", "assay": "Trypsinization and replating assay", "format": "cell-based, rat", "settings": "for Cell number: replated, counted nine days later", "protocol": "as §1"}, "9L-ZP cells": {"test_system": "9L-ZP cells", "assay": "Drug sensitivity of cultured 9L cells with or without metyrapone", "settings": "Rattus norvegicus, 120 h"}, "C450-8 cells": {"test_system": "C450-8 cells", "assay": "cells", "settings": "Rattus norvegicus, read-out: CPA concentration reducing the number of cells by 50%", "protocol": "Cyclophosphamide Dose-Response Assay: For dose-response curves, cells were plated at a density of 2×10^5 cells/100 mm dish (Corning) in quintuplicate. Two days later CPA was added to final concentrations of 0-100 μM. Five days after plating, the monolayers were rinsed twice with Hank's buffered saline (GIBCO) to remove dead cells. Monolayers were dispersed using trypsin-EDTA (GIBCO), and cell numbers were determined using a Coulter counter (Coulter Electronics Inc.)."}, "[1]": {"test_system": "C6 glioma plus R450-2 cells", "assay": "Brain tumor model, fibroblast graft then intrathecal/intratumoral CPA", "format": "in vivo, athymic mice", "protocol": "(§2) For intracerebral injections, mice were anesthetized with an intraperitoneal injection of Ketamin (100 mg per kg body weight) (Parke Davis, NJ) and Xylazine (20 mg per kg body weight) (Mobay Corp., KS). Surgical procedures were performed in a sterile fashion. After immobilizing the rodent in stereotactic apparatus (Kopf), a small incision was made in the skin overlying the skull. C6 glioma cells (10^3 cells in 2 μl) were stereotactically inoculated approximately 0.5 mm frontal and 0.5 mm right lateral to the bregma using a Hamilton syringe. The inoculation period was 5 minutes, with 2 minutes allowed for needle retraction. Three days later, the same burrhole was employed for the stereotactic grafting of 5×10^6 CRELacZ cells (cell line kindly provided by Dr. R. Mulligan, MIT) or 5×10^6 R450-2 cells in 25 μl of DMEM. Four, eight, and eleven days after this last injection, CPA (0.3 mg in 5 μl) was administered stereotactically, through the same skull opening, into the tumor and meningeal space of mice from both CRELacZ and R450-2 groups. Injections were carried out stereotactically over a period of ten minutes, with five minutes allowed for needle retraction. Animals were sacrificed, ten days after injection of the last dose of prodrug, by perfusing through the left ventricle approximately 3-5 mL of 100 mM sodium phosphate in 0.9% sodium chloride, pH 7.3, followed by 4% paraformaldehyde in 100 mM sodium phosphate, pH 7.3. Brains were carefully dissected from the skull and jaws of the animals, prior to placement overnight in 4% paraformaldehyde in 100 mM sodium phosphate, pH 7.3. For cryopreservation, brains were placed in 20% glycerol/10% dimethylsulfoxide in 100 mM sodium phosphate, pH 7.3, and then cut in 50 micron sections with a sledge microtome. Every sixth section was mounted onto gelatin-coated slides and stained with cresyl violet. To calculate brain tumor volumes, a computerized-image analyzer was used to scan tumor areas on each section. This analysis was performed in a blind fashion. Manual contouring was performed to distinguish tumor from normal brain cysts, or processing artifacts. Tumor volumes were obtained by multiplying the average tumor area from all sections in a brain by the distance (0.3 mm) between and including each section."}, "[2]": {"test_system": "C6 glioma plus CRELacZ cells", "assay": "Brain tumor model, fibroblast graft then intrathecal/intratumoral CPA", "format": "in vivo, athymic mice", "protocol": "as §2"}, "C6BAGWT cells": {"test_system": "C6BAGWT cells", "assay": "Ganciclovir sensitivity, cell proliferation assay", "format": "cell-based, rat", "settings": "even at 1000 nM ganciclovir", "protocol": "(§3) Ganciclovir Sensitivity Assays in Culture: To measure the sensitivity of isolated cells, cells were plated in 24-well plates at a density of 10^4 cells per well. The next day, medium was replaced with medium containing ganciclovir (Cytovene, Burroughs Wellcome) at varying concentrations (0-1 μM) in quadruplicate. Four days later, cells were harvested using trypsin and counted using a cell counter (Coulter Electronics Ltd., Luton, United Kingdom). Cell growth is expressed as the percentage of cells compared to the number of cells without treatment (100%)."}, "C6BAG cells": {"test_system": "C6BAG cells", "assay": "Ganciclovir sensitivity, cell proliferation assay", "format": "cell-based, rat", "settings": "even at 1000 nM ganciclovir", "protocol": "as §3"}, "[3]": {"test_system": "C6BU1 (HSV-TK negative) cells", "assay": "Ganciclovir sensitivity, cell proliferation assay", "format": "cell-based, rat", "settings": "even at 1000 nM ganciclovir", "protocol": "as §3"}, "C6BWT cells": {"test_system": "C6BWT cells", "assay": "Ganciclovir sensitivity, cell proliferation assay", "format": "cell-based, rat", "settings": "even at 1000 nM ganciclovir", "protocol": "as §3"}, "C6BBAG cells": {"test_system": "C6BBAG cells", "assay": "Ganciclovir sensitivity, cell proliferation assay", "format": "cell-based, rat", "settings": "even at 1000 nM ganciclovir", "protocol": "as §3"}, "parental C6 cells": {"test_system": "parental C6 cells", "settings": "subcutaneous, nude mice; cited from earlier work"}, "C6VIKWT tumors": {"test_system": "C6VIKWT tumors", "assay": "Ganciclovir sensitivity of subcutaneous tumors in vivo", "set-up": "species or system nude mice", "protocol": "Ganciclovir therapy was begun when tumor size reached 1 cm in diameter as measured by calipers, by intraperitoneal injections up to 25 mg/kg daily for 14 days. […] Tumor volumes were measured biweekly during treatment over a 24 day period, and were expressed as a percentage compared to the volume at the time treatment was begun."}, "[4]": {"settings": "Table V panel B, survivors of panel A replated, nine days"}, "[5]": {"settings": "CPA 0.3 mg on days 4, 8, 11 after graft, sacrifice ten days after last dose"}, "[6]": {"settings": "individual animals, after cyclophosphamide administration"}}, "note": "Several values for one entry are separate records, joined by “and”; a condition that tells them apart may be missing. Equal entries are not always repeated.", "data": [{"compound": "O=P1(N(CCCl)CCCl)NCCCO1", "note": "(stereo not drawn) [cyclophosphamide]", "values": [{"measurement": "Cell number", "setting": "C6 cells; 0.5 mM CPA for 0.5 h", "value": "11.6 ± 0.4 ×10^6"}, {"measurement": "Cell number", "setting": "C6 cells; 0.5 mM CPA for 1.5 h", "value": "21.7 ± 0.6 ×10^6"}, {"measurement": "Cell number", "setting": "C6 cells; 0.5 mM CPA for 3 h", "value": "13.1 ± 1.6 ×10^6"}, {"measurement": "Cell number", "setting": "C6 cells; 0.5 mM CPA for 6 h", "value": "12.9 ± 0.7 ×10^6"}, {"measurement": "Cell number", "setting": "C6 cells; 0.5 mM CPA for 10 h", "value": "20.4 ± 0.6 ×10^6"}, {"measurement": "Cell number", "setting": "C6 cells; 0.5 mM CPA for 24 h", "value": "17 ± 0.7 ×10^6"}, {"measurement": "Cell number", "setting": "C6 cells; 0.5 mM CPA for 32 h", "value": "15.4 ± 0.5 ×10^6"}, {"measurement": "Cell number", "setting": "C6 cells; 0.5 mM CPA for 48 h", "value": "18.3 ± 1 ×10^6"}, {"measurement": "Cell number", "setting": "C6 cells; 0.5 mM CPA for 72 h", "value": "20.2 ×10^6"}, {"measurement": "Cell number", "setting": "C6 cells; 0.5 mM CPA for 96 h", "value": "28.8 ± 0.8 ×10^6"}, {"measurement": "Trypsinization and replating assay, cell count", "setting": "C6 cells; [4]", "value": "21.48±0.38"}, {"measurement": "pulse of CPA sufficient to completely inhibit the growth of replated cells", "setting": "C6-P450 cells; 0.5 mM CPA", "value": 3, "unit": "h"}, {"measurement": "Cell number", "setting": "C6-P450 cells; 0.5 mM CPA for 0.5 h", "value": "12 ± 1 ×10^6"}, {"measurement": "Cell number", "setting": "C6-P450 cells; 0.5 mM CPA for 1.5 h", "value": "24.1 ± 0.6 ×10^6"}, {"measurement": "Cell number", "setting": "C6-P450 cells; 0.5 mM CPA for 3 h", "value": "0.2 ×10^6"}, {"measurement": "Cell number", "setting": "C6-P450 cells; 0.5 mM CPA for 6 h", "value": "0.1 ×10^6"}, {"measurement": "Cell number", "setting": "C6-P450 cells; 0.5 mM CPA for 10 h", "value": "0.1 ×10^6"}, {"measurement": "Cell number", "setting": "C6-P450 cells; 0.5 mM CPA for 24 h", "value": "0.1 ×10^6"}, {"measurement": "Cell number", "setting": "C6-P450 cells; 0.5 mM CPA for 32 h", "value": "0 ×10^6"}, {"measurement": "Cell number", "setting": "C6-P450 cells; 0.5 mM CPA for 48 h", "value": "0.1 ×10^6"}, {"measurement": "Cell number", "setting": "C6-P450 cells; 0.5 mM CPA for 72 h", "value": "0 ×10^6"}, {"measurement": "Cell number", "setting": "C6-P450 cells; 0.5 mM CPA for 96 h", "value": "0 ×10^6"}, {"measurement": "Proliferation of treated cells after replating", "setting": "C6-P450 cells; 0.5 mM, trypsinization and replating", "value": "completely inhibited"}, {"measurement": "Trypsinization and replating assay, cell count", "setting": "C6-P450 cells; [4]", "value": "0.11±0.01"}, {"measurement": "cytotoxicity at 1000 µM", "setting": "9L-ZP cells", "value": "> 90", "unit": "%"}, {"measurement": "IC50", "setting": "C450-8 cells", "value": 27, "unit": "µM"}, {"measurement": "animals with a small residual meningeal mass", "setting": "[1]; CPA 0.3 mg on days 4, 8, 11 after graft", "value": "1/8"}, {"measurement": "animals with no evidence of meningeal tumor", "setting": "[1]; [5]", "value": "7/8"}, {"measurement": "brains with extensive tumor necrosis", "setting": "[1]; histopathology of six brains", "value": "3/6"}, {"measurement": "Volumes of parenchymal brain tumors", "setting": "[1]; [6]", "value": "3.2 mm^3 and 14.2 mm^3 and 28.4 mm^3 and 87.4 mm^3 and 105.3 mm^3 and 171.4 mm^3"}, {"measurement": "brain tumor volume as fraction of average volume in lacZ-producer controls", "setting": "[1]; three of six animals, listed as CPA", "value": "approximately 1/20 and 1/5 and 1/2"}, {"measurement": "animals with extensive and friable meningeal tumor", "setting": "[2]; [5]", "value": "8/8"}, {"measurement": "Tumor necrosis of parenchymal tumors", "setting": "[2]; histopathology of six brains", "value": "essentially no tumor necrosis"}, {"measurement": "Volumes of parenchymal brain tumors", "setting": "[2]; [6]", "value": "47.5 mm^3 and 51.5 mm^3 and 54.7 mm^3 and 62.4 mm^3 and 72.6 mm^3 and 85.1 mm^3"}]}, {"compound": "Nc1nc(O)c2ncn(COC(CO)CO)c2n1", "note": "[ganciclovir]", "values": [{"measurement": "Inhibition of growth", "setting": "C6BAGWT cells", "value": "No substantial inhibition of growth"}, {"measurement": "Inhibition of growth", "setting": "C6BAG cells", "value": "No substantial inhibition of growth"}, {"measurement": "Inhibition of growth", "setting": "[3]", "value": "No substantial inhibition of growth"}, {"measurement": "Inhibition of growth", "setting": "C6BWT cells", "value": "No substantial inhibition of growth"}, {"measurement": "Inhibition of growth", "setting": "C6BBAG cells", "value": "No substantial inhibition of growth"}, {"measurement": "Tumor growth", "setting": "parental C6 cells", "value": "had no effect on tumor growth"}, {"measurement": "Tumor growth", "setting": "C6VIKWT tumors; ganciclovir for 14 days from tumor size 1 cm", "value": "inhibited subsequent growth completely"}, {"measurement": "Tumor regression", "setting": "C6VIKWT tumors; subcutaneous inoculation, GCV treatment", "value": "regression of tumors in most nude mice"}]}]}
